Results taken from patent US20260097047A1, “Small molecule inhibitors of the ribosome biogenesis factor NVL2” (Board of Regents, The University of Texas System, priority 2023, published 2026).

Tested on: HCT116 cells
Assay: Cell viability assay (CellTiter-Glo, 72 hours) in HCT116 human colorectal cancer cells
Format: cell-based
Details: Homo sapiens, HCT-116; Table 6; HCT116, 72 hours; read-out: Activity
In short: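 Ten-point IC50 came from an asymmetric five-parameter fit of luminescence corrected to vehicle wells. ATP content was measured by CellTiter-Glo 72 h after dosing at 37 °C. Cells were seeded at 2,000/well the day before, with 0.5% DMSO in all wells.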

Row | IC50 | SMILES
1 | < 500 nM | CC#CCN1C(=O)c2ccccc2Sc2cc(NC3CCCC3)ccc21 [Table 6: —CH2CCMe; cPent; CH/CH; S, 10-(But-2-yn-1-yl)-7-(cyclopentylamino)dibenzo[b,f][1,4]thiazepin-11 (10H)-one]
2 | < 500 nM | CC#CCN1C(=O)c2ccccc2Sc2cc(NC3CCCC3)cnc21 [Table 6: —CH2CCMe; cPent; CH/N; S, 11-(But-2-yn-1-yl)-3-(cyclopentylamino)benzo[f]pyrido[3,2-b][1,4]thiazepin-10(11H)-one]
3 | < 500 nM | CC#CCN1C(=O)c2ccccc2Sc2cc(NC3COC3)ccc21 [Table 6: —CH2CCMe; oxetan-3-yl; CH/CH; S, 10-(But-2-yn-1-yl)-7-(oxetan-3-ylamino)dibenzo[b,f][1,4]thiazepin-11 (10H)-one]

Same assay, conditions: Homo sapiens, HCT-116; Table 9; HCT116, 72 hours; read-out: Activity

Row | IC50 | SMILES
4 | < 500 nM | COc1ccc(C(=O)Nc2ccc3c(c2)Cc2ccccc2C(=O)N3CC#CC(F)(F)F)cc1 [Table 9: —CH2CCCF3; 4-MeOPh; CH2, 4-Methoxy-N-(6-oxo-5-(4,4,4-trifluorobut-2-yn-1-yl)-6, 11-dihydro-5H-dibenzo[b,e]azepin-2-yl)benzamide]
5 | < 500 nM | CC#CCN1C(=O)c2ccccc2C(C#N)c2cc(NC(=O)c3ccc(OC)cc3)ccc21 (centres unmarked) [Table 9: —CH2CCMe; 4-MeOPh; CHCN, N-(5-(But-2-yn-1-yl)-11-cyano-6-oxo-6,11-dihydro-5H-dibenzo[b,e]azepin-2-yl)-4-methoxybenzamide]
6 | < 500 nM | CC#CCN1C(=O)c2ccccc2C(C)c2cc(NC(=O)c3ccc(OC)cc3)ccc21 (centres unmarked) [Table 9: —CH2CCMe; 4-MeOPh; CHMe, N-(5-(But-2-yn-1-yl)-11-methyl-6-oxo-6,11-dihydro-5H-dibenzo[b,e]azepin-2-yl)-4-methoxybenzamide]
7 | < 500 nM | CC#CCN1C(=O)c2ccccc2C(C)(O)c2cc(NC(=O)c3ccc(OC)cc3)ccc21 (centres unmarked) [Table 9: —CH2CCMe; 4-MeOPh; CMeOH, N-(5-(But-2-yn-1-yl)-11-hydroxy-11-methyl-6-oxo-6,11-dihydro-5H-dibenzo[b,e]azepin-2-yl)-4-methoxybenzamide]

Same assay, conditions: Homo sapiens, HCT-116; read-out: IC50s (cellular activity of MM017 derivatives)

Row | IC50 | SMILES
8 | 2100 nM | COCCN1C(=O)c2ccccc2Sc2cc(NC(=O)c3ccc(OC(F)(F)F)cc3)ccc21 [compound 4]
9 | 13000 nM | COCCN1C(=O)c2ccccc2Sc2cc(NC(=O)c3ccccc3OC)ccc21 [compound 5]

Same assay, conditions: Table 6; HCT116, 72 hours; read-out: Activity

Row | IC50 | SMILES
10 | < 500 nM | CC#CCN1C(=O)c2ccccc2Sc2cc(NC3COC3)cnc21 [Table 6: —CH2CCMe; oxetan-3-yl; CH/N; S]

Same assay, conditions: Table 7; cell viability assay, CellTiter-Glo, 72 hours; scaffold drawing 42 with R^2, R^3, X/Y, Z; read-out: Activity

Row | IC50 | SMILES
11 | < 500 nM | C#CCOCCN1C(=O)c2ccccc2Sc2cc(NC(=O)c3cccc(CCC#N)c3)ccc21 [—(CH2)2OCH2CCH; 3-(2′-CNEt)Ph; CH/CH; S]
12 | 1000 to 5000 nM | C#CCOCCN1C(=O)c2ccccc2Sc2cc(NC(=O)c3ccc(OC)c(F)c3)ccc21 [—(CH2)2OCH2CCH; 3-F,4-MeOPh; CH/CH; S]
13 | < 500 nM | C#CCOCCN1C(=O)c2ccccc2Cc2cc(NC(=O)c3ccc(OC)cc3)ccc21 [—(CH2)2OCH2CCH; 4-MeOPh; CH/CH; CH2]

Same assay, conditions: Table 9; HCT116, 72 hours; read-out: Activity

Row | SMILES | IC50
14 | COCC=CC(=O)Nc1ccc2c(c1)C(C)c1ccccc1C(=O)N2CC#CC1CC1 (centres unmarked) [Table 9: —CH2CC^cPr; CH═CHCH2OMe; CHMe] | < 500 nM
15 | COCCNC(=O)Nc1ccc2c(c1)C(C)c1ccccc1C(=O)N2CC#CC1CC1 (centres unmarked) [Table 9: —CH2CC^cPr; NH(CH2)2OMe; CHMe] | < 500 nM
16 | CC1c2ccccc2C(=O)N(CC#CC2CC2)c2ccc(NC(=O)C3CC(O)C3)cc21 (stereo not drawn) [Table 9: —CH2CC^cPr; cis-3-OH-cBu; CHMe] | < 500 nM
17 | CC1c2ccccc2C(=O)N(CC#CC2CC2)c2ccc(NC(=O)C3COC3)cc21 (centres unmarked) [Table 9: —CH2CC^cPr; oxetan-3-yl; CHMe] | < 500 nM
18 | COCC1CC(C(=O)Nc2ccc3c(c2)C(C#N)c2ccccc2C(=O)N3CC#CC2CC2)C1 (centres unmarked) [Table 9: —CH2CCcPr; 3-MeOCH2-cBu; CHCN] | < 500 nM
19 | COCC1CC(C(=O)Nc2ccc3c(c2)C(C)(O)c2ccccc2C(=O)N3CC#CC2CC2)C1 (centres unmarked) [Table 9: —CH2CCcPr; 3-MeOCH2-cBu; CMeOH] | < 500 nM
20 | CO[C@H]1C[C@@H](C(=O)Nc2ccc3c(c2)C(C)(O)c2ccccc2C(=O)N3CC#CC2CC2)C1 (stereo partly drawn) [Table 9: —CH2CCcPr; cis-3-MeOcBu; CMeOH] | < 500 nM
21 | COC1CC(C(=O)Nc2ccc3c(c2)C(C#N)c2ccccc2C(=O)N3CC#CC2CC2)C1 (stereo not drawn) [Table 9: —CH2CC°Pr; trans-3-MeOcBu; CHCN] | < 500 nM
22 | CO[C@H]1C[C@@H](C(=O)Nc2ccc3c(c2)C(C#N)c2ccccc2C(=O)N3CC#CC2CC2)C1 (stereo partly drawn) [Table 9: —CH2CCºPr; cis-3-MeOcBu; CHCN] | < 500 nM

Now from value to compound:

Row | IC50 | SMILES
23 | < 500 nM | COCC1CC(C(=O)Nc2ccc3c(c2)C(C#N)c2ccccc2C(=O)N3CC#CCF)C1 (centres unmarked) [Table 9: —CH2CCCH2F; 3-MeOCH2-cBu; CHCN]
24 | < 500 nM | COC1CC(C(=O)Nc2ccc3c(c2)C(C#N)c2ccccc2C(=O)N3CC#CCF)C1 (stereo not drawn) [Table 9: —CH2CCCH2F; cis-3-MeOcBu; CHCN]
25 | < 500 nM | COCC1CC(C(=O)Nc2ccc3c(c2)Cc2ccccc2C(=O)N3CC#CC2CC2)C1 (centres unmarked) [Table 9: —CH2CCCPr; 3-MeOCH2-cBu; CH2]
26 | < 500 nM | CO[C@H]1C[C@@H](C(=O)Nc2ccc3c(c2)Cc2ccccc2C(=O)N3CC#CC2CC2)C1 [Table 9: —CH2CCCPr; cis-3-MeOcBu; CH2]
27 | < 500 nM | CO[C@H]1C[C@H](C(=O)Nc2ccc3c(c2)Cc2ccccc2C(=O)N3CC#CC2CC2)C1 [Table 9: —CH2CCCPr; trans-3-MeOcBu; CH2]
28 | < 500 nM | COCC1CC(C(=O)Nc2ccc3c(c2)C(C)(O)c2ccccc2C(=O)N3CC#CCl)C1 (centres unmarked) [Table 9: —CH2CCCl; 3-MeOCH2-cBu; CMeOH]
29 | < 500 nM | COc1ccc(C(=O)Nc2ccc3c(c2)C(C)(O)c2ccccc2C(=O)N3CC#CCl)cc1 (centres unmarked) [Table 9: —CH2CCCl; 4-MeOPh; CMeOH]
30 | < 500 nM | CO[C@H]1C[C@@H](C(=O)Nc2ccc3c(c2)C(C)(O)c2ccccc2C(=O)N3CC#CCl)C1 (stereo partly drawn) [Table 9: —CH2CCCl; cis-3-MeOcBu; CMeOH]
31 | < 500 nM | CO[C@H]1C[C@H](C(=O)Nc2ccc3c(c2)C(C)(O)c2ccccc2C(=O)N3CC#CCl)C1 (stereo partly drawn) [Table 9: —CH2CCCl; trans-3-MeOcBu; CMeOH]
32 | < 500 nM | C#CCN1C(=O)c2ccccc2C(C#N)c2cc(NC(=O)C3CC(COC)C3)ccc21 (centres unmarked) [Table 9: —CH2CCH; 3-MeOCH2-cBu; CHCN]
33 | < 500 nM | C#CCN1C(=O)c2ccccc2C(C#N)c2cc(NC(=O)[C@H]3C[C@@H](OC)C3)ccc21 (stereo partly drawn) [Table 9: —CH2CCH; cis-3-MeOcBu; CHCN]
34 | < 500 nM | C#CCN1C(=O)c2ccccc2C(C#N)c2cc(NC(=O)[C@H]3C[C@H](OC)C3)ccc21 (stereo partly drawn) [Table 9: —CH2CCH; trans-3-MeOcBu; CHCN]
35 | < 500 nM | CC#CCN1C(=O)c2ccccc2C(C)c2cc(NC(=O)C3CC(COC)C3)ccc21 (centres unmarked) [Table 9: —CH2CCMe; 3-MeOCH2-cBu; CHMe]
36 | < 500 nM | CC#CCN1C(=O)c2ccccc2C(C)(O)c2cc(NC(=O)C3CC(COC)C3)ccc21 (centres unmarked) [Table 9: —CH2CCMe; 3-MeOCH2-cBu; CMeOH]
37 | < 500 nM | CC#CCN1C(=O)c2ccccc2C(C)c2cc(NC(=O)CCCO)ccc21 (centres unmarked) [Table 9: —CH2CCMe; (CH2)3OH; CHMe]
38 | < 500 nM | CC#CCN1C(=O)c2ccccc2C(C)c2cc(NC(=O)CCCOC)ccc21 (centres unmarked) [Table 9: —CH2CCMe; (CH2)3OMe; CHMe]

Row | IC50 | SMILES
39 | < 500 nM | CC#CCN1C(=O)c2ccccc2Cc2cc(NC(=O)CC3COC3)ccc21 [Table 9: —CH2CCMe; (oxetan-3-yl)CH2; CH2]
40 | < 500 nM | CC#CCN1C(=O)c2ccccc2C(C)c2cc(NC(=O)C=CCO)ccc21 (centres unmarked) [Table 9: —CH2CCMe; CH═CHCH2OH; CHMe]
41 | < 500 nM | CC#CCN1C(=O)c2ccccc2C(C)c2cc(NC(=O)C(C)CCOC)ccc21 (centres unmarked) [Table 9: —CH2CCMe; MeO(CH2)2CHMe-; CHMe]
42 | < 500 nM | CC#CCN1C(=O)c2ccccc2C(C)c2cc(NC(=O)NCCOC)ccc21 (centres unmarked) [Table 9: —CH2CCMe; NH(CH2)2OMe; CHMe]
43 | < 500 nM | CC#CCN1C(=O)c2ccccc2C(C)c2cc(NC(=O)OCCOC)ccc21 (centres unmarked) [Table 9: —CH2CCMe; O(CH2)2OMe; CHMe]
44 | < 500 nM | CC#CCN1C(=O)c2ccccc2Cc2cc(NC(=O)[C@H]3C[C@@H](OC)C3)ccc21 [Table 9: —CH2CCMe; cis-3-MeOcBu; CH2]
45 | < 500 nM | CC#CCN1C(=O)c2ccccc2C(C)c2cc(NC(=O)[C@H]3C[C@@H](OC)C3)ccc21 (stereo partly drawn) [Table 9: —CH2CCMe; cis-3-MeOcBu; CHMe]
46 | < 500 nM | CC#CCN1C(=O)c2ccccc2C(C)(O)c2cc(NC(=O)[C@H]3C[C@@H](OC)C3)ccc21 (stereo partly drawn) [Table 9: —CH2CCMe; cis-3-MeOcBu; CMeOH]
47 | < 500 nM | CC#CCN1C(=O)c2ccccc2C(C)c2cc(NC(=O)[C@H]3C[C@@H](O)C3)ccc21 (stereo partly drawn) [Table 9: —CH2CCMe; cis-3-OH-cBu; CHMe]
48 | < 500 nM | CC#CCN1C(=O)c2ccccc2C(C)c2cc(NC(=O)C3COC3)ccc21 (centres unmarked) [Table 9: —CH2CCMe; oxetan-3-yl; CHMe]
49 | < 500 nM | CC#CCN1C(=O)c2ccccc2Cc2cc(NC(=O)[C@H]3C[C@H](OC)C3)ccc21 [Table 9: —CH2CCMe; trans-3-MeOcBu; CH2]
50 | < 500 nM | CC#CCN1C(=O)c2ccccc2C(C#N)c2cc(NC(=O)[C@H]3C[C@H](OC)C3)ccc21 (stereo partly drawn) [Table 9: —CH2CCMe; trans-3-MeOcBu; CHCN]
51 | < 500 nM | CC#CCN1C(=O)c2ccccc2C(C)(O)c2cc(NC(=O)[C@H]3C[C@H](OC)C3)ccc21 (stereo partly drawn) [Table 9: —CH2CCMe; trans-3-MeOcBu; CMeOH]
52 | < 500 nM | CC#CCN1C(=O)c2ccccc2C(C)c2cc(NC(=O)[C@H]3C[C@H](O)C3)ccc21 (stereo partly drawn) [Table 9: —CH2CCMe; trans-3-OH-cBu; CHMe]
53 | < 500 nM | CC1c2ccccc2C(=O)N(CC#CC2CC2)c2ccc(NC(=O)C=CCO)cc21 (centres unmarked) [Table 9: —CH2CC^cPr; CH═CHCH2OH; CHMe]
